The values that follow come from ChEMBL document CHEMBL1134926, “Structure-Activity relationships of 2-substituted 5,7-Diarylcyclopenteno[1,2-b]pyridine-6-carboxylic acids as a novel class of endothelin receptor antagonists” (Bioorg Med Chem Lett, 2002).

Assay [1] concerns the target T1, Endothelin receptor type B (Homo sapiens, UniProt P24530).
T1 sequence (P24530 whole entry): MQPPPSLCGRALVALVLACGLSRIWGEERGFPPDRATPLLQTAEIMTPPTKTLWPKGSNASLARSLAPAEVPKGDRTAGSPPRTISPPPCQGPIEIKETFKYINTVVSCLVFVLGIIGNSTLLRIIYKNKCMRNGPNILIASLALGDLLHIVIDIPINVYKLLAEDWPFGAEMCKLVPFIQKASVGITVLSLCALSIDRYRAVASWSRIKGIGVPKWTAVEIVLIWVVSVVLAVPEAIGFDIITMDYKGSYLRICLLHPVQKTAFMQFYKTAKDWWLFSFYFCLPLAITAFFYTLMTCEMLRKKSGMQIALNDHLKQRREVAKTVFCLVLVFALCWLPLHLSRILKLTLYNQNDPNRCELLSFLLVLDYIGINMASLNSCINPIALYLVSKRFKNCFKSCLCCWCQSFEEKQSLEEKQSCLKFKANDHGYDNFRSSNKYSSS
The assay can be described thus: Inhibitory activity against I-labeled ET-1 binding to Endothelin B receptor.

Assay [2] concerns the target Endothelin receptor, ET-A/ET-B (Homo sapiens) (UniProt P24530+P25101). The assay can be described thus: Selectivity was calculated as the ratio of IC50 of Endothelin B receptor / IC50 of Endothelin A receptor. It is filed as protein assay.
A further assay has as its target T2, Endothelin-1 receptor (Homo sapiens, UniProt P25101).
T2 sequence (P25101 whole entry): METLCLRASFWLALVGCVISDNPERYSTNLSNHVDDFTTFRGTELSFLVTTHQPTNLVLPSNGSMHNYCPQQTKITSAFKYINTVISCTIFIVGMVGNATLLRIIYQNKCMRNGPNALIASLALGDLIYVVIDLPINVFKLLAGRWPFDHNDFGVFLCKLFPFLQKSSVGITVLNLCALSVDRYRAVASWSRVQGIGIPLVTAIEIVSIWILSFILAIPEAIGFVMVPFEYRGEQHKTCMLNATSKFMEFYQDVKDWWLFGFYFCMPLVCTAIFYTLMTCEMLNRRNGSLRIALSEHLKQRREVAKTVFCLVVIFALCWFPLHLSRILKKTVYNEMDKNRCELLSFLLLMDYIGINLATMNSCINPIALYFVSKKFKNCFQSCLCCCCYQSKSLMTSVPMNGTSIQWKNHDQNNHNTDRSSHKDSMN
The assay can be described thus: Inhibitory activity against I-labeled ET-1 binding to Endothelin A receptor.

With `COc1ccc([C@@H]2c3nc(CCCO)ccc3C(c3ccc4c(c3)OCO4)[C@H]2C(=O)O)cc1` (single isomer, unassigned), the IC50 in assay [1] is 190 nM; on Endothelin-1 receptor, 0.55 nM. In addition, in assay [2], the Ratio was 350.
The corresponding values for `COc1ccc([C@@H]2c3ncccc3[C@H](c3ccc4c(c3)OCO4)[C@H]2C(=O)O)cc1` are 410 nM, 2.4 nM and 170.
Take `COc1ccc([C@@H]2c3nc(N(C)C(C)C)ccc3C(c3ccc4c(c3)OCO4)[C@H]2C(=O)O)cc1` (single isomer, unassigned): the IC50 in assay [1] amounted to 14 nM; at Endothelin-1 receptor, 3.2 nM. Besides, in assay [2], the Ratio is 4.4.
In the same order, the values of `COc1ccc([C@@H]2c3nc(CCC(=O)O)ccc3C(c3ccc4c(c3)OCO4)[C@H]2C(=O)O)cc1` (single isomer, unassigned) are 530 nM, 150 nM and 3.5.
Consider `COc1ccc([C@@H]2c3nc(-c4ccccc4)ccc3C(c3ccc4c(c3)OCO4)[C@H]2C(=O)O)cc1` (single isomer, unassigned), for which the IC50 in assay [1] is 130 nM; on Endothelin-1 receptor, 15 nM. Also, the Ratio in assay [2] is 8.7.
In the same order, the values of `CCNCc1ccc2c(n1)[C@@H](c1ccc(OC)cc1)[C@H](C(=O)O)C2c1ccc2c(c1)OCO2` (single isomer, unassigned) are 940 nM, 7 nM and 130.
In the same order, the values of `CCCSc1ccc2c(n1)[C@@H](c1ccc(OC)cc1)[C@H](C(=O)O)C2c1ccc2c(c1)OCO2` (single isomer, unassigned) are 53 nM, 8.2 nM and 6.5.
For `COc1ccc([C@@H]2c3nc(NC(C)C)ccc3C(c3ccc4c(c3)OCO4)[C@H]2C(=O)O)cc1` (single isomer, unassigned), the IC50 is 42 nM in assay [1] and 0.1 nM on Endothelin-1 receptor. In addition, the Ratio in assay [2] was 420.
In the same order, the values of `COc1ccc([C@@H]2c3nc(C4CC4)ccc3[C@H](c3ccc4c(c3)OCO4)[C@H]2C(=O)O)cc1` are 63 nM, 1.6 nM and 39.
With `CCCCCc1ccc2c(n1)[C@@H](c1ccc(OC)cc1)[C@H](C(=O)O)[C@H]2c1ccc2c(c1)OCO2`, the IC50 in assay [1] was 9.1 nM; at Endothelin-1 receptor it was 1.9 nM. In addition, the Ratio in assay [2] is 4.8.
The corresponding values for `C=CCCc1ccc2c(n1)[C@@H](c1ccc(OC)cc1)[C@H](C(=O)O)[C@H]2c1ccc2c(c1)OCO2` are 14 nM, 0.2 nM and 70.
In the same order, the values of `COc1ccc([C@@H]2c3nc(CC(C)C)ccc3[C@H](c3ccc4c(c3)OCO4)[C@H]2C(=O)O)cc1` are 8.4 nM, 0.32 nM and 26.
On to `COc1ccc([C@@H]2c3nc(C)ccc3[C@H](c3ccc4c(c3)OCO4)[C@H]2C(=O)O)cc1`, for which the figures for the IC50 (in assay [1]; at Endothelin-1 receptor) were 100 nM and 5.7 nM, respectively. Further, the Ratio in assay [2] is 18.
The corresponding values for `CCCCc1ccc2c(n1)[C@@H](c1ccc(OC)cc1)[C@H](C(=O)O)[C@H]2c1ccc2c(c1)OCO2` are 11 nM, 0.21 nM and 52.
`CCCc1ccc2c(n1)[C@@H](c1ccc(OC)cc1)[C@H](C(=O)O)[C@H]2c1ccc2c(c1)OCO2`: the IC50 worked out at 30 nM in assay [1] and 0.37 nM on Endothelin-1 receptor. In addition, in assay [2], the Ratio was 81.
Regarding `CCCOc1ccc2c(n1)[C@@H](c1ccc(OC)cc1)[C@H](C(=O)O)C2c1ccc2c(c1)OCO2` (single isomer, unassigned), the IC50 in assay [1] was determined as 65 nM; on Endothelin-1 receptor it was 0.92 nM. Further, in assay [2], the Ratio was 71.
In the same order, the values of `COc1ccc([C@@H]2c3nc(N4CCCC4)ccc3C(c3ccc4c(c3)OCO4)[C@H]2C(=O)O)cc1` (single isomer, unassigned) are 21 nM, 2.2 nM and 9.5.
The corresponding values for `CCOCc1ccc2c(n1)[C@@H](c1ccc(OC)cc1)[C@H](C(=O)O)C2c1ccc2c(c1)OCO2` (single isomer, unassigned) are 140 nM, 0.51 nM and 270.
Consider `CCCNc1ccc2c(n1)[C@@H](c1ccc(OC)cc1)[C@H](C(=O)O)C2c1ccc2c(c1)OCO2` (single isomer, unassigned), for which the IC50 in assay [1] was 63 nM; on Endothelin-1 receptor, 0.12 nM. Besides, in assay [2], the Ratio was 520.
`CCc1ccc2c(n1)[C@@H](c1ccc(OC)cc1)[C@H](C(=O)O)[C@H]2c1ccc2c(c1)OCO2`: the figures for the IC50 (in assay [1]; at Endothelin-1 receptor) were 87 nM and 4.5 nM, respectively. Moreover, the Ratio in assay [2] is 19.
